Experimental data: US6350775B1, “3-phenyl-furan-(5H)-2-one and dihydrofuran-2-one derivatives as antibacterial agents” (priority 1996, dated 2002)
In brackets after ≈: the same amount, converted by molar mass.

Legend:
Assay type in all cases: cell-based
[1] = tested on: Coagulase Negative Staphylococcis MR (methicillin resistant); test: MIC by agar-dilution, Coagulase Negative Staphylococci MR; details: 10^4 CFU/spot, 37° C., 24 hours
Experimental: (§1) The following results were obtained on a standard in vitro test system. The activity is described in terms of the minimum inhibitory concentration (MIC) determined by the agar-dilution technique with an inoculum size of 10^4 CFU/spot. Staphylococci were tested on agar, using an inoculum of 10^4 CFU/spot and an incubation temperature of 37° C. for 24 hours—standard test conditions for the expression of methicillin resistance.

[2] = tested on: Staphylococcus aureus MRQS (methicillin resistant quinolone sensitive); test: MIC by agar-dilution, Staphylococcus aureus MRQS; details: 10^4 CFU/spot, 37° C., 24 hours
Experimental: as §1

[3] = tested on: Staphylococcus aureus Novb. Res (Novobiocin resistant); test: MIC by agar-dilution, Staphylococcus aureus Novb. Res; details: 10^4 CFU/spot, 37° C., 24 hours
Experimental: as §1

[4] = tested on: Staphylococcus aureus Oxford; test: MIC by agar-dilution, Staphylococcus aureus Oxford; details: 10^4 CFU/spot, 37° C., 24 hours
Experimental: as §1

Enterococcus faecalis = test: MIC by agar-dilution, Enterococcus faecalis; details: agar with 5% defibrinated horse blood, 10^4 CFU/spot, 37° C., 5% carbon dioxide, 48 hours
Experimental: as §1
(§2) Streptococci and enterococci were tested on agar supplemented with 5% defibrinated horse blood, an inoculum of 10^4 CFU/spot and an incubation temperature of 37° C. in an atmosphere of 5% carbon dioxide for 48 hours—blood is required for the growth of some of the test organisms.

[5] = tested on: Staphylococcus aureus MRQR (methicillin resistant quinolone resistant); test: MIC by agar-dilution, Staphylococcus aureus MRQR; details: 10^4 CFU/spot, 37° C., 24 hours
Experimental: as §1

[6] = tested on: Coagulase Negative Staphylococcis MS; test: MIC by agar-dilution, Coagulase Negative Staphylococci MS; details: 10^4 CFU/spot, 37° C., 24 hours
Experimental: as §1

Bacillus subtilis = test: MIC by agar-dilution, Bacillus subtilis; details: 10^4 CFU/spot
Experimental: as §1

[7] = tested on: Streptococcus pyogenes C203; test: MIC by agar-dilution, Streptococcus pyogenes C203; details: agar with 5% defibrinated horse blood, 10^4 CFU/spot, 37° C., 5% carbon dioxide, 48 hours
Experimental: as §1, §2

Structure (SMILES): CC(=O)NC[C@H]1CC(c2ccc(C3=CCN(C(=O)CO)CC3)cc2)C(=O)O1 (stereo partly drawn) [Example 5, 5R,3RS-5-Acetamidomethyl-3-(4-[1-hydroxyacetyl-1,2,5,6-tetrahydropyrid-4-yl]phenyl)dihydrofuran-2(3H)-one]
- MIC [1]: 4.0 µg/mL (≈ 10.7 µM)
- MIC [2]: 4.0 µg/mL (≈ 10.7 µM)
- MIC [3]: 4.0 µg/mL (≈ 10.7 µM)
- MIC [4]: 4.0 µg/mL (≈ 10.7 µM)
- MIC (Enterococcus faecalis): 8.0 µg/mL (≈ 21.5 µM)
- MIC [5]: 8.0 µg/mL (≈ 21.5 µM)
- MIC [6]: 2.0 µg/mL (≈ 5.37 µM)
- MIC (Bacillus subtilis): 4.0 µg/mL (≈ 10.7 µM)
- MIC [7]: 8.0 µg/mL (≈ 21.5 µM)
